Measurements taken from patent publication US8178506B2, “Oligomeric compounds and compositions for use in modulation of small non-coding RNAs” (Regulus Therapeutics Inc., priority 2003, dated 2012).
In the oligonucleotide strings, read from the 5' end, every base follows the letter of its sugar. An asterisk marks phosphorothioate; unmarked linkages are phosphodiester. Other units and linkages are bracketed, terminal groups are in braces. A string of capitals states the bases alone. e = 2'-O-(2-methoxyethyl) (MOE); [5mC] = 5-methylcytosine; d = 2'-deoxy (DNA)

How the values were obtained:
IL-12 mRNA = IL-12 mRNA in LPS-activated primary murine macrophages; type: cell-based, mouse; conditions: for IL-12 mRNA expression, −IFN % UTC: 300 nM oligomeric compound and LPS, no IFN-gamma pretreatment, single experiment; for IL-12 mRNA expression, −IFN % UTC / IL-12 mRNA expression, +IFN % UTC: normalized to LPS-treated cells without oligomeric compound; for IL-12 mRNA expression, +IFN % UTC: 300 nM oligomeric compound, stimulation with IFN-gamma and LPS, average of 2 experiments; for IL-12 mRNA expression, % UTC: LPS, average of 3 treatments
[1] = test system: BJ, B16-F10, T47D, T47Dp53 and HeLa cells; assay: Cell cycle assay (propidium iodide flow cytometry), cell line panel; type: cell-based; conditions: for G1 (percentage of cells in phase of the cell cycle) / G2/M (percentage of cells in phase of the cell cycle) / S (percentage of cells in phase of the cell cycle) / SubG1 (percentage of cells in phase of the cell cycle) / aneuploid (percentage of cells): 150 nM oligomeric compound, 4.5 μg/ml LIPOFECTIN, after 72 hours, propidium iodide flow cytometry

| Substance | IL-12 mRNA expression, −IFN % UTC (IL-12 mRNA) | IL-12 mRNA expression, +IFN % UTC (IL-12 mRNA) | G1 (percentage of cells in phase of the cell cycle) [1] | G2/M (percentage of cells in phase of the cell cycle) [1] | S (percentage of cells in phase of the cell cycle) [1] | SubG1 (percentage of cells in phase of the cell cycle) [1] | aneuploid (percentage of cells) [1] | other results |
| --- | --- | --- | --- | --- | --- | --- | --- | --- |
| 327920 (antisense eG*eA*eG*eA*e[5mC]*e[5mC]*e[5mC]*eA*eG*eT*eA*eG*e[5mC]*e[5mC]*eA*eG*eA*eT*eG*eT*eA*eG*e[5mC]*eT) [compound 327920] | 171 % UTC | 68 % UTC | – | – | – | – | – | – |
| TGAGCTACAGTGCTTCATCTCA [ISIS 327901] (chemistry not given here) [uniform 2′-MOE PS; targets mir-143] | – | – | – | – | – | – | – | percentage of cells in the G2/M phase ([1]; 150 nM, 72 hours (Table 29)): increased percentage of cells in the G2/M phase |
| 328691 (e[5mC]*e[5mC]*e[5mC]*e[5mC]*eA*dT*d[5mC]*dT*dT*dA*dG*d[5mC]*dA*dT*d[5mC]*eT*eA*eA*eG*eG) [compound 328691] | – | – | 60.5% | 15.1% | 24.4% | 7.7% | 16.6% | – |
| 327931 (antisense eA*eA*e[5mC]*e[5mC]*eA*eT*eA*e[5mC]*eA*eA*e[5mC]*e[5mC]*eT*eA*e[5mC]*eT*eA*e[5mC]*e[5mC]*eT*e[5mC]*eA) [compound 327931] | 105 % UTC | 48 % UTC | – | – | – | – | – | – |
| 327911 (antisense eG*e[5mC]*eT*eA*e[5mC]*e[5mC]*eT*eG*e[5mC]*eA*e[5mC]*eT*eG*eT*eA*eA*eG*e[5mC]*eA*e[5mC]*eT*eT*eT*eT) [compound 327911] | – | – | 49.9% | 20% | 30.1% | 10.9% | 16.5% | – |
| 327878 (antisense e[5mC]*eT*eA*eG*eT*eG*eG*eT*e[5mC]*e[5mC]*eT*eA*eA*eA*e[5mC]*eA*eT*eT*eT*e[5mC]*eA*e[5mC]) [compound 327878] | – | – | 39.1% | 20% | 40.8% | 17.3% | 11.9% | – |
| 327899 (antisense e[5mC]*eA*eG*eT*eG*eA*eA*eT*eT*e[5mC]*eT*eA*e[5mC]*e[5mC]*eA*eG*eT*eG*e[5mC]*e[5mC]*eA*eT*eA) [compound 327899] | 164 % UTC | 7 % UTC | – | – | – | – | – | – |
| 327923 (antisense eG*eA*eA*eA*eG*eA*eG*eA*e[5mC]*e[5mC]*eG*eG*eT*eT*e[5mC]*eA*e[5mC]*eT*eG*eT*eG*eA) [compound 327923] | 269 % UTC | 134 % UTC | – | – | – | – | – | – |
| 327921 (antisense e[5mC]*eT*eT*e[5mC]*e[5mC]*eA*eG*eT*e[5mC]*eG*eG*eG*eG*eA*eT*eG*eT*eT*eT*eA*e[5mC]*eA) [compound 327921] | 325 % UTC | 24 % UTC | – | – | – | – | – | IL-12 mRNA expression, % UTC (IL-12 mRNA; 75 nM, +IFN): 14 % UTC; IL-12 mRNA expression, % UTC (IL-12 mRNA; 75 nM, −IFN): 109 % UTC; IL-12 mRNA expression, % UTC (IL-12 mRNA; 150 nM, +IFN): 7 % UTC; IL-12 mRNA expression, % UTC (IL-12 mRNA; 150 nM, −IFN): 88 % UTC; IL-12 mRNA expression, % UTC (IL-12 mRNA; 300 nM, +IFN): 5 % UTC; IL-12 mRNA expression, % UTC (IL-12 mRNA; 300 nM, −IFN): 67 % UTC; IL-12 mRNA expression, % UTC (IL-12 mRNA; 600 nM, +IFN): 5 % UTC; IL-12 mRNA expression, % UTC (IL-12 mRNA; 600 nM, −IFN): 53 % UTC |
| 327927 (antisense eT*eG*eT*eA*eA*eA*e[5mC]*e[5mC]*eA*eT*eG*eA*eT*eG*eT*eG*e[5mC]*eT*eG*e[5mC]*eT*eA) [compound 327927] | 164 % UTC | 33 % UTC | – | – | – | – | – | – |
| 327967 (antisense eA*e[5mC]*eT*eG*eT*eA*e[5mC]*eA*eA*eA*e[5mC]*eT*eA*e[5mC]*eT*eA*e[5mC]*e[5mC]*eT*e[5mC]*eA) [compound 327967] | 203 % UTC | 43 % UTC | – | – | – | – | – | – |
| 327910 (antisense eT*eG*eA*eT*eA*eG*e[5mC]*e[5mC]*e[5mC]*eT*eG*eT*eA*e[5mC]*eA*eA*eT*eG*e[5mC]*eT*eG*e[5mC]*eT) [compound 327910] | – | – | 49.5% | 17.5% | 33% | 9.3% | 13.1% | – |
| 327951 (antisense e[5mC]*eA*e[5mC]*eA*eA*eA*e[5mC]*e[5mC]*eA*eT*eT*eA*eT*eG*eT*eG*e[5mC]*eT*eG*e[5mC]*eT*eA) [compound 327951] | – | – | 60.9% | 14.3% | 24.8% | 4.3% | 16.7% | – |
| 328117 (antisense eT*e[5mC]*e[5mC]*eA*e[5mC]*eA*eA*eA*eG*e[5mC]*eT*eG*eA*eA*e[5mC]*eA*eT*eG*eT*e[5mC]*eT) [compound 328117] | 162 % UTC | 72 % UTC | – | – | – | – | – | – |
| 327933 (antisense eA*eA*eG*eG*eG*eA*eT*eT*e[5mC]*e[5mC]*eT*eG*eG*eG*eA*eA*eA*eA*e[5mC]*eT*eG*eG*eA*e[5mC]) [compound 327933] | – | – | 49.6% | 19.1% | 31.3% | 10.2% | 15.9% | – |
| 327902 (antisense eG*eG*e[5mC]*eT*eG*eT*e[5mC]*eA*eA*eT*eT*e[5mC]*eA*eT*eA*eG*eG*eT*e[5mC]*eA*eG) [compound 327902] | – | – | 50.7% | 15.3% | 33.9% | 10.6% | 13.4% | – |
| 327922 (antisense eT*e[5mC]*eA*eG*eT*eT*eT*eT*eG*e[5mC]*eA*eT*eG*eG*eA*eT*eT*eT*eG*e[5mC]*eA*e[5mC]*eA) [compound 327922] | – | – | 50.4% | 18.9% | 30.7% | 10% | 16.8% | – |
| 327905 (antisense e[5mC]*eA*eG*eA*e[5mC]*eT*e[5mC]*e[5mC]*eG*eG*eT*eG*eG*eA*eA*eT*eG*eA*eA*eG*eG*eA) [compound 327905] | – | – | 56.9% | 15% | 28.1% | 8.5% | 14.7% | – |
| 327906 (antisense eT*e[5mC]*eA*eT*eA*eG*e[5mC]*e[5mC]*e[5mC]*eT*eG*eT*eA*e[5mC]*eA*eA*eT*eG*e[5mC]*eT*eG*e[5mC]*eT) [compound 327906] | – | – | 46.1% | 20.9% | 33% | 15.2% | 15.8% | – |
| 327904 (antisense eA*e[5mC]*eT*e[5mC]*eA*e[5mC]*e[5mC]*eG*eA*e[5mC]*eA*eG*e[5mC]*eG*eT*eT*eG*eA*eA*eT*eG*eT*eT) [compound 327904] | – | – | 54.4% | 16.2% | 29.5% | 8.6% | 15.6% | – |
| 327907 (antisense eA*eG*e[5mC]*e[5mC]*eT*eA*eT*e[5mC]*e[5mC]*eT*eG*eG*eA*eT*eT*eA*e[5mC]*eT*eT*eG*eA*eA) [compound 327907] | – | – | 49.5% | 17.6% | 32.8% | 17.8% | 17.8% | – |
| 327888 (antisense eA*eA*eT*eG*e[5mC]*e[5mC]*e[5mC]*e[5mC]*eT*eA*eA*eA*eA*eA*eT*e[5mC]*e[5mC]*eT*eT*eA*eT) [compound 327888] | – | – | 53.7% | 16.7% | 29.5% | 13.3% | 12.9% | – |
| 328362 (eT*eG*eT*eG*eT*dT*dT*dT*d[5mC]*dT*dG*dA*d[5mC]*dT*d[5mC]*eA*eG*eT*e[5mC]*eA) [compound 328362] | – | – | 51.2% | 15.1% | 33.6% | 9.1% | 12.9% | – |
| 328382 (e[5mC]*eA*eG*eA*e[5mC]*dT*d[5mC]*d[5mC]*d[5mC]*dA*dA*d[5mC]*dT*dG*dA*e[5mC]*e[5mC]*eA*eG*eA) [compound 328382] | – | – | 59.8% | 14.4% | 25.7% | 2.9% | 14.8% | – |
| 327934 (antisense eG*eG*eT*eA*e[5mC]*eA*eA*eT*e[5mC]*eA*eA*e[5mC]*eG*eG*eT*e[5mC]*eG*eA*eT*eG*eG*eT) [compound 327934] | – | – | 54.4% | 17.4% | 28.2% | 6.6% | 17% | – |
